Assay results as given in patent US20190062305A1, “PYRIDYL OR PYRAZINYL COMPOUNDS CARRYING A METHYL-BOUND ALPHA-AMINO ACID AMIDE GROUP” (ABBVIE DEUTSCHLAND GMBH & CO. KG, priority 2015, published 2019).
pEC50: −log10 of the molar value. Structures can show the parent of a compound that is named as a salt. Blank lines part the entries; values can stand above or below the compound they belong to.

Tests used:
[1] = Metabolic stability in human liver microsomes, unbound intrinsic clearance (Cl int/fu mic); format: in vitro ADME; details: human, liver microsomes, pH 7.4, human liver microsomes 0.25 mg/mL, 0.5 μM compound, NADPH, read-out: Cl int, mic unb. (h) [l/h/kg] (unbound intrinsic clearance, human)
In short: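 Unbound intrinsic clearance is CLint divided by fu mic, with the unbound fraction measured by 4 h HTDialysis at 37 °C of 0.25 mg/ml microsomes spiked with 0.5 µM compound. For CLint, 0.5 µM compound was incubated with 0.25 mg/mL human microsomes and 1.0 mM NADPH (pH 7.4, 37 °C). Substrate loss over 30 min was measured by LC-MS/MS and t1/2 assumed first-order kinetics.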

5-HT2C receptor = target: T1, 5-HT2C receptor (Homo sapiens, UniProt P28335); assay: Human 5-HT2C functional assay (beta-arrestin2 recruitment, U2OS_HTR2C_β-Arrestin cells); format: cell-based; details: for pEC50: beta-arrestin2 recruitment, U2OS_HTR2C_β-Arrestin cells, 1.5 h incubation, read-out: EC50 5-HT2C (potency in functional assay); for Emax: relative efficacy vs response to 10 μM 5-HT or maximal 5-HT effect (100%)
T1 construct: host or cells: U2OS
T1 sequence (P28335 33-458): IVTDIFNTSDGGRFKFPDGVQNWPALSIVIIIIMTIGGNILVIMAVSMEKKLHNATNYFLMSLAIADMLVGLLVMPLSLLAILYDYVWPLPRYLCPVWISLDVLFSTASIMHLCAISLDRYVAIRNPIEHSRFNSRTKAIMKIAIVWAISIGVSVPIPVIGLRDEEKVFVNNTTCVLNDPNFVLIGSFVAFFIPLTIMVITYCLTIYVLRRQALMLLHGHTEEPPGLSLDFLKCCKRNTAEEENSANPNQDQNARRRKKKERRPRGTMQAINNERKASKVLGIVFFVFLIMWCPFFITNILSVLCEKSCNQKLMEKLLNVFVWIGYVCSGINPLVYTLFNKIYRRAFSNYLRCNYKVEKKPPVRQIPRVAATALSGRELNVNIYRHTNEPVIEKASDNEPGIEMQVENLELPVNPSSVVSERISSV
T1 sequence (P32121 whole entry partner): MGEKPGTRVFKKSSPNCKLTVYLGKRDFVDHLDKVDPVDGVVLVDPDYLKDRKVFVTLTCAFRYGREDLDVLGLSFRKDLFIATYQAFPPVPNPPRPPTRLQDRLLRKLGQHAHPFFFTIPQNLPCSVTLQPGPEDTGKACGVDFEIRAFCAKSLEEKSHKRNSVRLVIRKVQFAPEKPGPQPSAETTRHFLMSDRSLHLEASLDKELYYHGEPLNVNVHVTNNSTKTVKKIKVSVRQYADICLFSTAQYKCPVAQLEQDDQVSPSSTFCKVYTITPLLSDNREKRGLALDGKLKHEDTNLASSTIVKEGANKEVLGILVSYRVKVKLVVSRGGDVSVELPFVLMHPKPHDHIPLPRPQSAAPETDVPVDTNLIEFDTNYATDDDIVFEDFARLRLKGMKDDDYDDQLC
In short: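 EC50 and relative efficacy came from 4-parameter variable-slope fits, normalised to 10 µM 5-HT or maximal 5-HT response (100%). Luminescent β-galactosidase enzyme-complementation signal was read after 1.5 h compound exposure in U2OS_HTR2C_β-Arrestin cells held in 1% serum medium from the prior day.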

SMILES: COc1nc(OC2CC(F)(F)C2)c(F)cc1CNC(=O)[C@@H]1CCCN1C [Example 71, (2S)—N-[[6-(3,3-Difluorocyclobutoxy)-5-fluoro-2-methoxy-3-pyridyl]methyl]-1-methyl-pyrrolidine-2-carboxamide Hydrochloride]
CLint scaled at 0.5 μM [1]: < 5 L/h/kg | pEC50 (5-HT2C receptor): > 7.70 | Emax (5-HT2C receptor): > 70%

SMILES: COc1nc(OCc2ccccc2)c(F)cc1CNC(=O)[C@@H]1CCCN1 [Example 2, (2S)—N-[(6-Benzyloxy-5-fluoro-2-methoxy-3-pyridyl)methyl]pyrrolidine-2-carboxamide; 2,2,2-trifluoroacetic Acid]
CLint scaled at 0.5 μM [1]: < 5 L/h/kg | pEC50 (5-HT2C receptor): > 7.70 | Emax (5-HT2C receptor): > 70%

SMILES: COc1nc(OCC(F)(F)F)c(F)cc1CN(C)C(=O)[C@@H]1CCCN1C [Example 113, (2S)—N-[[5-Fluoro-2-methoxy-6-(2,2,2-trifluoroethoxy)-3-pyridyl]methyl]-N,1-dimethyl-pyrrolidine-2-carboxamide Hydrochloride]
CLint scaled at 0.5 μM [1]: < 5 L/h/kg | pEC50 (5-HT2C receptor): 6.00 to 6.70 | Emax (5-HT2C receptor): 30 to 50%

SMILES: COc1nc(OC2CCC(F)(F)CC2)c(F)cc1CNC(=O)[C@@H]1CCCN1C [Example 10, (2S)—N-[[6-(4,4-Difluorocyclohexoxy)-5-fluoro-2-methoxy-3-pyridyl]methyl]-1-methyl-pyrrolidine-2-carboxamide; Fumaric Acid]
CLint scaled at 0.5 μM [1]: 5 to 50 L/h/kg | pEC50 (5-HT2C receptor): > 7.70 | Emax (5-HT2C receptor): > 70%

CLint scaled at 0.5 μM [1]: 5 to 50 L/h/kg | pEC50 (5-HT2C receptor): > 7.70 | Emax (5-HT2C receptor): > 70%
SMILES: COc1nc(OC2CCCC3C2C3(F)F)c(F)cc1CNC(=O)[C@@H]1CCCN1 (stereo partly drawn) [Example 95, (2S)—N-[[6-(7,7-Difluoronorcaran-2-yl)oxy-5-fluoro-2-methoxy-3-pyridyl]methyl]-pyrrolidine-2-carboxamide]

SMILES: COc1nc(O[C@H]2CC[C@@H](F)CC2)c(F)cc1CNC(=O)[C@@H]1CCCN1C [Example 29, (2S)—N-[[5-Fluoro-6-(cis-4-fluorocyclohexoxy)-2-methoxy-3-pyridyl]methyl]-1-methyl-pyrrolidine-2-carboxamide; Fumaric Acid]
CLint scaled at 0.5 μM [1]: < 5 L/h/kg | pEC50 (5-HT2C receptor): > 7.70 | Emax (5-HT2C receptor): > 70%

SMILES: COc1nc(NCc2ccc(F)cc2)c(F)cc1CNC(=O)[C@@H]1CCCN1 [Example 177, (2S)—N-[[5-Fluoro-6-[(4-fluorophenyl)methylamino]-2-methoxy-3-pyridyl]methyl]-pyrrolidine-2-carboxamide; 2,2,2-trifluoroacetic Acid]
CLint scaled at 0.5 μM [1]: < 5 L/h/kg | pEC50 (5-HT2C receptor): 6.70 to 7.70 | Emax (5-HT2C receptor): > 70%

SMILES: COc1nc(O[C@H]2CC[C@H](F)CC2)c(F)cc1CNC(=O)[C@@H]1CCCN1 [Example 31, (2S)—N-[[5-Fluoro-6-(trans-4-fluorocyclohexoxy)-2-methoxy-3-pyridyl]methyl]-pyrrolidine-2-carboxamide; Fumaric Acid]
CLint scaled at 0.5 μM [1]: < 5 L/h/kg | pEC50 (5-HT2C receptor): > 7.70 | Emax (5-HT2C receptor): > 70%

SMILES: COc1nc(N2CCC(F)(F)CC2)c(F)cc1CN(C)C(=O)[C@@H]1CCCN1 [Example 165, (2S)—N-[[6-(4,4-Difluoro-1-piperidyl)-5-fluoro-2-methoxy-3-pyridyl]methyl]-N-methyl-pyrrolidine-2-carboxamide; 2,2,2-trifluoroacetic Acid]
CLint scaled at 0.5 μM [1]: < 5 L/h/kg | pEC50 (5-HT2C receptor): 6.70 to 7.70 | Emax (5-HT2C receptor): 50 to 70%

SMILES: COc1nc(N2CCC(F)(F)CC2)c(F)cc1CNC(=O)[C@@H]1CCCN1 [Example 134, (2S)—N-[[6-(4,4-Difluoro-1-piperidyl)-5-fluoro-2-methoxy-3-pyridyl]methyl]-pyrrolidine-2-carboxamide; 2,2,2-trifluoroacetic Acid]
CLint scaled at 0.5 μM [1]: < 5 L/h/kg | pEC50 (5-HT2C receptor): > 7.70 | Emax (5-HT2C receptor): > 70%

SMILES: COc1nc(OC2CCC(F)(F)C2)c(F)cc1CNC(=O)[C@@H]1CCCN1 (stereo partly drawn) [Example 24, (2S)—N-[[6-(3,3-Difluorocyclopentoxy)-5-fluoro-2-methoxy-3-pyridyl]methyl]-pyrrolidine-2-carboxamide; Fumaric Acid]
CLint scaled at 0.5 μM [1]: < 5 L/h/kg | pEC50 (5-HT2C receptor): > 7.70 | Emax (5-HT2C receptor): > 70%

SMILES: COc1nc(O[C@H]2CCC[C@H](C(F)(F)F)C2)c(F)cc1CNC(=O)[C@@H]1CCCN1 (relative stereo) [Example 89, (2S)—N-[[5-Fluoro-2-methoxy-6-[(1S,3S)-3-(trifluoromethyl)cyclohexoxy]-3-pyridyl]methyl]pyrrolidine-2-carboxamide Hydrochloride]
CLint scaled at 0.5 μM [1]: 5 to 50 L/h/kg | pEC50 (5-HT2C receptor): > 7.70 | Emax (5-HT2C receptor): > 70%

SMILES: COc1nc(N2CCC(C(F)(F)F)CC2)c(F)cc1CNC(=O)[C@@H]1CCCN1 [Example 133, (2S)—N-[[5-Fluoro-2-methoxy-6-[4-(trifluoromethyl)-1-piperidyl]-3-pyridyl]methyl]pyrrolidine-2-carboxamide; 2,2,2-trifluoroacetic Acid]
CLint scaled at 0.5 μM [1]: 5 to 50 L/h/kg | pEC50 (5-HT2C receptor): > 7.70 | Emax (5-HT2C receptor): > 70%

SMILES: COc1nc(OC2CCC(C(F)F)CC2)c(F)cc1CNC(=O)[C@@H]1CCCN1 (stereo partly drawn) [Example 66, (2S)—N-[[6-[4-(Difluoromethyl)cyclohexoxy]-5-fluoro-2-methoxy-3-pyridyl]methyl]-pyrrolidine-2-carboxamide hydrochloride]
CLint scaled at 0.5 μM [1]: 5 to 50 L/h/kg | pEC50 (5-HT2C receptor): > 7.70 | Emax (5-HT2C receptor): > 70%

SMILES: COc1nc(OC2CCC(C(F)(F)F)CC2)c(F)cc1CNC(=O)[C@H]1NC[C@H]1C (stereo partly drawn) [Example 79, (2S,3R)—N-[[5-Fluoro-2-methoxy-6-[4-(trifluoromethyl)cyclohexoxy]-3-pyridyl]-methyl]-3-methyl-azetidine-2-carboxamide; Fumaric Acid]
CLint scaled at 0.5 μM [1]: 50 to 500 L/h/kg | pEC50 (5-HT2C receptor): 6.70 to 7.70 | Emax (5-HT2C receptor): 30 to 50%

SMILES: COc1nc(OC2CC3C(C2)C3(F)F)c(F)cc1CNC(=O)[C@@H]1CCCN1 (stereo partly drawn) [Example 54, (2S)—N-[[6-[(6,6-Difluoro-3-bicyclo[3.1.0]hexanyl)oxy]-5-fluoro-2-methoxy-3-pyridyl]methyl]pyrrolidine-2-carboxamide 2,2,2-trifluoroacetic Acid]
CLint scaled at 0.5 μM [1]: < 5 L/h/kg | pEC50 (5-HT2C receptor): > 7.70 | Emax (5-HT2C receptor): > 70%

CLint scaled at 0.5 μM [1]: < 5 L/h/kg | pEC50 (5-HT2C receptor): 6.70 to 7.70 | Emax (5-HT2C receptor): > 70%
SMILES: COc1nc(NC2CCC2C(F)(F)F)c(F)cc1CNC(=O)[C@@H]1CCCN1 (stereo partly drawn) [Example 186, (2S)—N-[[5-Fluoro-2-methoxy-6-[[2-(trifluoromethyl)cyclobutyl]amino]-3-pyridyl]-methyl]pyrrolidine-2-carboxamide]

SMILES: COc1nc(O[C@@H]2CCCC[C@H]2F)c(F)cc1CNC(=O)[C@@H]1CCCN1 [Example 55, (2S)—N-[[5-Fluoro-6-[(1R,2R)-2-fluorocyclohexoxy]-2-methoxy-3-pyridyl]methyl]pyrrolidine-2-carboxamide; 2,2,2-trifluoroacetic Acid]
CLint scaled at 0.5 μM [1]: < 5 L/h/kg | pEC50 (5-HT2C receptor): > 7.70 | Emax (5-HT2C receptor): > 70%

SMILES: COc1nc(O[C@H]2CC[C@H](C(F)(F)F)CC2)c(F)cc1CNC(=O)[C@@H]1CCCN1C [Example 8, (2S)—N-[[5-Fluoro-2-methoxy-6-[trans-4-(trifluoromethyl)cyclohexoxy]-3-pyridyl]methyl]-1-methyl-pyrrolidine-2-carboxamide; Fumaric Acid]
CLint scaled at 0.5 μM [1]: 5 to 50 L/h/kg | pEC50 (5-HT2C receptor): > 7.70 | Emax (5-HT2C receptor): > 70%

SMILES: COc1nc(OC2CC(F)(F)C2)c(F)cc1CN(C)C(=O)[C@@H]1CCCN1C [Example 99, (2S)—N-[[6-(3,3-Difluorocyclobutoxy)-5-fluoro-2-methoxy-3-pyridyl]methyl]-N,1-dimethyl-pyrrolidine-2-carboxamide Hydrochloride]
CLint scaled at 0.5 μM [1]: < 5 L/h/kg | pEC50 (5-HT2C receptor): 6.70 to 7.70 | Emax (5-HT2C receptor): 50 to 70%

SMILES: COc1nc(OC2CCC(F)(F)CC2)cnc1CNC(=O)[C@@H]1CCCN1 [Example 108, (2S)—N-[[5-(4,4-Difluorocyclohexoxy)-3-methoxy-pyrazin-2-yl]methyl]pyrrolidine-2-carboxamide; 2,2,2-trifluoroacetic Acid]
CLint scaled at 0.5 μM [1]: < 5 L/h/kg | pEC50 (5-HT2C receptor): 6.70 to 7.70 | Emax (5-HT2C receptor): > 70%

SMILES: COc1nc(OCC2(C(F)(F)F)CC2)c(F)cc1CNC(=O)[C@@H]1CCCN1 [Example 48, (2S)—N-[[5-Fluoro-2-methoxy-6-[[1-(trifluoromethyl)cyclopropyl]methoxy]-3-pyridyl]methyl]pyrrolidine-2-carboxamide; Succinic Acid]
CLint scaled at 0.5 μM [1]: < 5 L/h/kg | pEC50 (5-HT2C receptor): > 7.70 | Emax (5-HT2C receptor): > 70%

SMILES: COc1nc(O[C@H]2CC[C@H](C(F)(F)F)CC2)c(F)cc1CNC(=O)[C@@H]1CCCN1 [Example 11, (2S)—N-[[5-Fluoro-2-methoxy-6-[trans-4-(trifluoromethyl)cyclohexoxy]-3-pyridyl]methyl]pyrrolidine-2-carboxamide; Fumaric Acid]
CLint scaled at 0.5 μM [1]: 5 to 50 L/h/kg | pEC50 (5-HT2C receptor): > 7.70 | Emax (5-HT2C receptor): > 70%

SMILES: COc1nc(OCC2CCCCC2)c(F)cc1CNC(=O)[C@@H]1CCCN1 [Example 3, (2S)—N-[[6-(Cyclohexylmethoxy)-5-fluoro-2-methoxy-3-pyridyl]methyl]pyrrolidine-2-carboxamide; 2,2,2-trifluoroacetic acid]
CLint scaled at 0.5 μM [1]: 5 to 50 L/h/kg | pEC50 (5-HT2C receptor): > 7.70 | Emax (5-HT2C receptor): > 70%

CLint scaled at 0.5 μM [1]: < 5 L/h/kg | pEC50 (5-HT2C receptor): 6.00 to 6.70 | Emax (5-HT2C receptor): > 70%
SMILES: COCCCCc1nc(OC)c(CNC(=O)[C@@H]2CCCN2)cc1F [Example 193, (2S)—N-[[5-Fluoro-2-methoxy-6-(4-methoxybutyl)-3-pyridyl]methyl]pyrrolidine-2-carboxamide]
